Assay results: ChEMBL document CHEMBL1148072, “Ellagitannins and complex tannins from Quercus petraea bark” (J Nat Prod, 1994)

test system: Blood; experiment: Astringency in human blood by heme-analysis relative to tannin; assay type: functional

Going from `O=C1OC[C@H]2OC(=O)c3cc(O)c(O)c(O)c3-c3c(O)c(O)c(O)c4c3C(=O)O[C@H]([C@@H]3OC(=O)c5c-4c(O)c(O)c(O)c5[C@@H]3c3c(O)cc(O)c4c3O[C@H](c3ccc(O)c(O)c3)[C@@H](O)C4)[C@H]2OC(=O)c2cc(O)c(O)c(O)c2-c2c1cc(O)c(O)c2O` [ACUTISSIMIN A] to `O=C1OC[C@H]2OC(=O)c3cc(O)c(O)c(O)c3-c3c(O)c(O)c(O)c4c3C(=O)O[C@H]([C@@H]3OC(=O)c5c-4c(O)c(O)c(O)c5[C@@H]3c3c(O)cc(O)c4c3O[C@H](c3cc(O)c(O)c(O)c3)[C@@H](O)C4)[C@H]2OC(=O)c2cc(O)c(O)c(O)c2-c2c1cc(O)c(O)c2O` [EUGENIGRANDIN A], the Activity rises from 0.28 to 0.46.

Compared with `O=C1OC[C@H]2OC(=O)c3cc(O)c(O)c(O)c3-c3c(O)c(O)c(O)c4c3C(=O)O[C@H]([C@@H]3OC(=O)c5c-4c(O)c(O)c(O)c5[C@@H]3c3c(O)cc4c(c3O)C[C@H](O)[C@@H](c3cc(O)c(O)c(O)c3)O4)[C@H]2OC(=O)c2cc(O)c(O)c(O)c2-c2c1cc(O)c(O)c2O` [GUAJAVIN B], `O=C1OCC2OC(=O)c3cc(O)c(O)c(O)c3-c3c(O)c(O)c(O)c4c3C(=O)OC(C2OC(=O)c2cc(O)c(O)c(O)c2-c2c1cc(O)c(O)c2O)C1OC(=O)c2c-4c(O)c(O)c(O)c2C1O` (stereo unspecified) [VESCALAGIN] is lower in Activity: 0.44 for the first, 0.24 for the second.

`O=C1OC[C@H]2OC(O)[C@@H]3OC(=O)c4cc(O)c(O)c(O)c4-c4c(cc(O)c(O)c4O)C(=O)O[C@H]3[C@@H]2OC(=O)c2cc(O)c(O)c(O)c2-c2c1cc(O)c(O)c2O` (stereo partly specified) [PEDUNCULAGIN] showed an Activity of 0.2.

test system: Caenorhabditis elegans; experiment: Anthelmintic activity against Caenorhabditis elegans; assay type: functional, organism-based

For `COC(=O)Nc1nc2cc(C(=O)c3ccccc3)ccc2[nH]1` [MEBENDAZOLE], the IC50 was 10 ppm.
